# Data published in PMC5108240 (ACS infectious diseases, 2016).
# What was measured:
# [1] = tested on: K. pneumoniae (ATCC 10031); assay type: cell-based, Klebsiella pneumoniae
# K. pneumoniae DHFR = K. pneumoniae DHFR (Klebsiella pneumoniae, UniProt A6T4I4); experiment: biochemical
# [2] = tested on: K. pneumoniae (ATCC 10031); experiment: microbe, parasite or virus in culture; assay type: cell-based; settings: Klebsiella pneumoniae, ATCC10031, read-out: MIC in the presence of thymidine
# E. coli (ATCC 25922) = assay type: cell-based
structure (smiles),measurement,setting,value
"COc1cc(Cc2cnc(N)nc2N)cc(OC)c1OC [TMP, trimethoprim]",MIC Kp,[1],0.0781 µg/mL
same,IC50,K. pneumoniae DHFR,106 ± 6 nM
same,MIC,[2],> 20 µg/mL
same,Time-kill: bacteriostatic or bactericidal,E. coli (ATCC 25922),bacteriostatic
